# Results reported in article PMC8196714, “Design, Radiosynthesis and Preliminary Biological Evaluation in Mice of a Brain-Penetrant ^18F-Labelled σ2 Receptor Ligand” (International Journal of Molecular Sciences, 2021).
# Key:
# [1] = Dynamic PET imaging in CD1 mice; assay type: in vivo; details: i.v.
# Procedure: As expected by the optimal lipophilicity of [^18F]RM273 (see 2.3, [43]) the PET images and the time–activity curve obtained for the whole brain shown in Figure 6 indicate a fast permeation of the BBB with a mean standardized uptake value (SUV) of 1.3 ± 0.4 at 2.25 min p.i. (n = 4).
# The biodistribution of [^18F]RM273 in mice was assessed by dynamic small animal PET (Nanoscan, Mediso, Budapest, Hungary) 60 min recordings, followed by T1 weighted (GRE, TR/TE = 15.0/2.4 ms, 252/252, FA = 25°) imaging for anatomical correlation and attenuation correction. The mice weighing 31.7 ± 3.8 g were anaesthetized with 2% isoflurane in 60% oxygen and placed on a thermostatically heated animal bed. [^18F]RM273 (7.2 ± 1.1 MBq) was injected i.v. into the lateral tail vein (bolus within 5 s) at the start of the PET-acquisition. List mode PET data were binned as a series of attenuation-corrected sinogram frames (12 × 10 s, 6 × 30 s, 5 × 60 s and 10 × 300 s) and were reconstructed by Ordered Subset Expectation Maximization (OSEM3D) with four iterations, six subsets, and a voxel size of 0.4 mm^3 (Nucline v2.01, Mediso, Hungary). The analysis of reconstructed datasets was performed with PMOD software (v4.103, PMOD Technologies LLC, Zurich, Switzerland). […]
# [2] = Lipophilicity (logD7.4), shake-flask method; assay type: physicochemical; details: n-octanol/PBS pH 7.4, shake-flask, n = 3
# Procedure: (§1) The in vitro stability of [^18F]RM273 was investigated in saline, phosphate-buffered saline (PBS), and TRIS-HCl buffer (50 mM, pH 7.4) at 37 °C for 2 h, and the radioligand remained intact (90%, 94%, and 100%, respectively; saline for 1 h: 95%). The logD7.4 of [^18F]RM273 was experimentally determined by the shake-flask method as 1.78 ± 0.22 (n = 3), which is well within the range of 1–3.5 recommended for brain targeting compounds [43].
# LogD7.4 of [^18F]RM273 was experimentally determined in n-octanol/PBS; 0.01 M, pH 7.4) at room temperature by the shake-flask method. The measurement was performed twice in triplicate.
# [3] = In vitro stability of the radioligand in saline, PBS and TRIS-HCl buffer; assay type: physicochemical; details: 37 °C
# Procedure: as §1
# In vitro stability of [^18F]RM273 was determined in saline, phosphate-buffered saline (PBS), and TRIS (50 mM, pH 7.4) by incubation of approx. 5 MBq in 500 µL of each medium at 37 °C. Samples were taken after 30, 60, and 120 min and analyzed by analytical radio-HPLC with a gradient system as applied in Section 5.2.2.
# [4] = Quantification of radiometabolites in mouse tissues at 30 min p.i.; assay type: in vivo, CD-1 mice
# Procedure: From quantitative analysis of the radio-chromatograms, which indicated the presence of solely [^18F]RM273 (>99%; n = 3; Supplemental Information Table S1 and Figure S2), we concluded that upon the presence of an intact BBB, the PET image derived from [^18F]RM273 in the brain was not affected by confounding radiometabolites.
# About 30 MBq [^18F]RM273 dissolved in about 150 µL isotonic saline was administered intravenously as a bolus in the tail vein of in awake female CD-1 mice weighing about 33 g (n = 3). At 30 min p.i., the animals were anesthetized and blood was withdrawn by retrobulbar bleeding using glass capillaries. Immediately afterwards, the animals were euthanized by cervical dislocation, and released urine sampled. Blood plasma was obtained from the whole blood sample by centrifugation (2 min, 8000 rpm, room temperature). In addition, the brain, the liver, and the pancreas were isolated and homogenized in 1 mL demineralized water on ice (1000 rpm, 10 strokes; glass vessel, PTFE plunger; Potter S, B. Braun Biotech International, Goettingen, Germany). Bone marrow (n = 2) was isolated by flushing the femur with about 200 µL isotonic saline.
# The samples were further processed for subsequent radio-chromatographic analyses. Two consecutive extractions were performed as duplicate for plasma and brain determinations. Plasma and brain samples were added to an ice-cold MeOH/H2O mixture (9:1, v/v). The samples were vortexed for 3 min, incubated on ice for 5 min, and centrifuged at 12,000 rpm for 5 min. Supernatants were collected, the precipitates were re-dissolved in 100 µL of extraction solvent, and the extraction procedure was repeated. The activities of supernatants and precipitates were measured in a γ-counter (1480 WIZARD, Fa. Perkin Elmer), and the extraction efficiencies were calculated as ratio of the radioactivity in the supernatant to the radioactivity in the original sample (supernatant + precipitate). The supernatants from both extractions were combined, concentrated at 70 °C under argon stream up to a remaining volume of 100 µL, and subsequently analyzed by analytical radio-HPLC with a gradient system as applied in Section 5.2.2.
# 3. Quantification of radiometabolites in mouse
# Table 1. Radiometabolite analysis of [18F]RM273 in different tissues 30 min p.i.
# Experiment 1 Experiment 2
# Extraction Intact Extraction Intact Extraction Intact efficiency tracer efficiency tracer (%) efficiency tracer
# Figure 2. Representative radio-HPLC chromatograms of the metabolism studies of [18F]RM273 in different tissues obtained at 30 min p.i.. (A) Brain, (B) Plasma, (C) Pancreas, (D)
# Liver and (E) Bone marrow. Conditions:
# Reprosil-Pur C18-AQ (250 x 4.6 mm; 5 μm); gradient (eluent A 10% MeCN/20 mM
# NH4OAcaq.; eluent B 90 % MeCN/20 mM
# (1 picture or pasted object on this page, not shown here)
smiles,measurement,setting,value
COc1cc2c(cc1OC)CN(CCCCn1ccc3ccc([18F])nc31)CC2 [[^18F]RM273],"mean standardized uptake value (SUV), whole brain","[1]; 2.25 min p.i., n = 4",1.3 ± 0.4
same,"peak-to-endpoint ratio, brain",[1]; 60 min PET,6.4 ± 0.9
same,logD,[2],1.78 ± 0.22
same,radioligand remained intact,"[3]; TRIS-HCl buffer (50 mM, pH 7.4), 2 h",100%
same,radioligand remained intact,"[3]; phosphate-buffered saline (PBS), 2 h",94%
same,radioligand remained intact,"[3]; saline, 1 h",95%
same,radioligand remained intact,"[3]; saline, 2 h",90%
same,Intact tracer,"[4]; Bone Marrow, Mouse 2",97%
same,Intact tracer,"[4]; Bone Marrow, Mouse 3",97%
same,Intact tracer,"[4]; Brain, Mouse 1",100%
same,Intact tracer,"[4]; Brain, Mouse 2",100%
same,Intact tracer,"[4]; Brain, Mouse 3",100%
same,Intact tracer,"[4]; Liver, Mouse 1",34%
same,Intact tracer,"[4]; Liver, Mouse 2",36%
same,Intact tracer,"[4]; Liver, Mouse 3",28%
same,Intact tracer,"[4]; Pancreas, Mouse 1",100%
same,Intact tracer,"[4]; Pancreas, Mouse 2",96%
same,Intact tracer,"[4]; Pancreas, Mouse 3",96%
same,Intact tracer,"[4]; Plasma, Mouse 1",23%
same,Intact tracer,"[4]; Plasma, Mouse 2",37%
same,Intact tracer,"[4]; Plasma, Mouse 3",28%
same,intact radioligand in brain,"[4]; mice, n = 3",> 99%
